Laboratory results taken from patent EP1063290A1, “NOVEL DICARBONYLREDUCTASE AND GENE ENCODING THE SAME” (TAISHO PHARMACEUTICAL CO., LTD, priority 1998, dated 1999).
Like-named read-outs stand apart in the source and are kept apart here.

How the values were obtained:
protein DCR1 = protein DCR1 (Mus musculus, UniProt Q91X52); test: Dicarbonyl reductase activity assay: substrate specificity and rate constants (NAD(P)H oxidation at 340 nm); conditions: for activity (as substrate): Example 5, result in words
Description: (§1) The enzyme activity assay method is not particularly restricted, and it may be based on the activity assay method for mouse carbonyl reductase (CR) (Eur. J. Biochem. 22, 381-387(1995)). The enzyme used here was an expressed recombinant enzyme. • (a) Substrate specificity: In order to determine the substrate specificity, there may be used a hydrocarbon system including various ketone, aldehyde and ester groups, or an aromatic compound.
• (1) This was assayed under the following conditions. The reaction mixture (total: 2.0 ml) comprised an 80 mM potassium phosphate solution (pH 7.0 or 6.0), 0.1 mM NADPH or NADH and a carbonyl substrate or enzyme (50 µl) (10.1 µg or 3.7 µg of glomerin B). The oxidation rate for NAD(P)H was measured at 340 nm.

protein hDCR1 = protein hDCR1 (Homo sapiens, UniProt Q7Z4W1); test: Dicarbonyl reductase activity assay: substrate specificity (NAD(P)H oxidation at 340 nm); conditions: against a reference of 100 for diacetyl
Description: as §1
The reaction mixture (total: 2.0 ml) comprised an 80 mM potassium phosphate solution (pH 7.0 or 6.0), 0.1 mM NADPH or NADH and a carbonyl substrate or enzyme (50 µl) (10.1 µg or 3.7 µg of hDCR1).
The oxidation rate for NAD(P)H was measured at 340 nm.
One unit of enzyme activity was defined as that which catalyzed oxidation of 1 µmol of NAD(P)H in one minute at 25°C.

[1] = substrate concentration 20 μM, against a reference of 100 for diacetyl
[2] = substrate concentration 1,000 μM, against a reference of 100 for diacetyl
[3] = substrate concentration 100 μM, against a reference of 100 for diacetyl
[4] = substrate concentration 5,000 μM, against a reference of 100 for diacetyl
[5] = substrate concentration 1,000 μM
[6] = substrate concentration 5,000 μM
[7] = substrate concentration 500 μM, against a reference of 100 for diacetyl
[8] = substrate concentration 2,000 μM

Chain of protein DCR1 (Q91X52 whole entry): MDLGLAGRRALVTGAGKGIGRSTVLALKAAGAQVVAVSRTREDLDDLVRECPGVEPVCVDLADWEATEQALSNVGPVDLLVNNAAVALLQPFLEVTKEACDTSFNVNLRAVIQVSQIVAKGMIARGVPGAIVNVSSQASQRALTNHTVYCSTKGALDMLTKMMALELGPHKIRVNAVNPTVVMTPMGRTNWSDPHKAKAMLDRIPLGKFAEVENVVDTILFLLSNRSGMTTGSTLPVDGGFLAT
Chain of protein hDCR1 (Q7Z4W1 whole entry): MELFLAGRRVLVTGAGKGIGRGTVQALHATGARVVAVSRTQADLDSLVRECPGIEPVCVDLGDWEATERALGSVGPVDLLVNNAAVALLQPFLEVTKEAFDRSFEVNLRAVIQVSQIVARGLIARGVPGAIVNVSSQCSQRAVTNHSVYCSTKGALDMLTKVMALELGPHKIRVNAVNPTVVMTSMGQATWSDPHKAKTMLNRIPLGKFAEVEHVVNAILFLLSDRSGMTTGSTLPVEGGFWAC

Molecule: CC(=O)[C@H]1CC[C@H]2[C@@H]3CC[C@@H]4CC(=O)CC[C@]4(C)[C@H]3CC[C@]12C [5β-Pregnane-3,20-dione]
- RA (%) relative activity (protein DCR1; [1]): 0.0%

Molecule: O=C1C=CCCC1 [2-Cyclohexen-1-one]
- RA (%) relative activity (protein DCR1; [2]): 1.3%

Molecule: O=C(C(=O)c1ccccc1)c1ccccc1 [Benzil]
- RA (%) relative activity (protein DCR1; [3]): 0%

Molecule: O=CCO [Glycolaldehyde]
- RA (%) relative activity (protein DCR1; [4]): 0.9%

Molecule: COC(=O)C(C)=O [Pyruvic acid methyl ester]
- RA (%) relative activity (protein DCR1; [2]): 23.3%
- RA (%) relative activity (protein hDCR1; [5]): 46%

Molecule: O=Cc1cccc([N+](=O)[O-])c1 [3-Nitrobenzaldehyde]
- RA (%) relative activity (protein DCR1; substrate concentration 3,000 μM, against a reference of 100 for diacetyl): 3.3%

Molecule: O=CC(O)CO (racemic) [DL-Glyceraldehyde]
- RA (%) relative activity (protein DCR1; [2]): 10.4%
- RA (%) relative activity (protein DCR1; [4]): 40%
- RA (%) relative activity (protein hDCR1; [6]): 25%

Molecule: C[C@@H](O)C=O [D-Lactoaldehyde]
- RA (%) relative activity (protein DCR1; [2]): 0.6%

Molecule: O=C1CCCCC1=O [1,2-Cyclohexanedione]
- RA (%) relative activity (protein DCR1; [2]): 10.9%
- RA (%) relative activity (protein hDCR1; [5]): 27%

Molecule: CC(=O)CCC(C)=O [2,5-Hexanedione]
- RA (%) relative activity (protein DCR1; [2]): 0%

Molecule: C[C@]12C[C@H](O)[C@H]3[C@@H](CCC4=CC(=O)CC[C@@]43C)[C@@H]1CC[C@@H]2C(=O)C=O [Corticosterone-21-al]
- RA (%) relative activity (protein DCR1; [1]): 0.0%

Molecule: CC(=O)CC(C)=O [2,4-Pentanedione]
- RA (%) relative activity (protein DCR1; [2]): 0%
- RA (%) relative activity (protein hDCR1; [5]): 0%

Molecule: CC(=O)[C@@]1(O)CC[C@H]2[C@@H]3CCC4=CC(=O)CC[C@]4(C)[C@H]3CC[C@@]21C [17α-hydroxyprogesterone]
- RA (%) relative activity (protein DCR1; [1]): 0.0%
- RA (%) relative activity (protein hDCR1; substrate concentration 50 μM): 0%

Molecule: O=C(O)CCC(=O)C(=O)O [α-Ketoglutaric acid]
- RA (%) relative activity (protein DCR1; [2]): 0%

Molecule: C[C@]12CCC(=O)C[C@H]1CC[C@@H]1[C@@H]2C(=O)C[C@@]2(C)[C@H]1CC[C@]2(O)C(=O)CO [5β-dihydrocortisone]
- RA (%) relative activity (protein hDCR1; substrate concentration 20 μM): 0%

Molecule: O=C1c2ccccc2C(=O)C1c1ccccc1 [1-Phenyl-1,3-indanedione]
- RA (%) relative activity (protein DCR1; substrate concentration 400 μM, against a reference of 100 for diacetyl): 0.6%

Molecule: CCC(=O)c1ccccc1 [Propiophenone]
- RA (%) relative activity (protein DCR1; [2]): 0%

Molecule: O=C1O[C@H]([C@@H](O)CO)C(=O)C1=O [Dehydroascorbic acid]
- RA (%) relative activity (protein DCR1; [7]): 0%

Molecule: CC(=O)C(=O)O [Pyruvic acid]
- RA (%) relative activity (protein DCR1; [4]): 0%

Molecule: O=CC(=O)C[C@H](O)[C@H](O)CO [3-Deoxyglucosone]
- RA (%) relative activity (protein DCR1; substrate concentration 2,000 μM, against a reference of 100 for diacetyl): 0.4%
- RA (%) relative activity (protein hDCR1; [8]): 5%

Molecule: C[C@]12CC[C@@H](O)C[C@H]1CC[C@@H]1[C@@H]2[C@@H](O)C[C@]2(C)[C@@H](C(=O)CO)CC[C@@H]12 [Tetrahydrocorticosterone]
- RA (%) relative activity (protein DCR1): 0.0%

Molecule: OC1C=CCCC1 (centres unmarked) [2-cyclohexen-1-ol]
- activity (as substrate) (protein DCR1): no activity

Molecule: C=CCN1CC[C@]23c4c5ccc(O)c4O[C@H]2C(=O)CC[C@@]3(O)[C@H]1C5 [Naloxone]
- RA (%) relative activity (protein DCR1; [2]): 0%

Molecule: O=Cc1cccnc1 [Pyridine-3-aldehyde]
- RA (%) relative activity (protein DCR1; [2]): 4%
- RA (%) relative activity (protein hDCR1; [5]): 27%

Molecule: O=C1CCC(=O)CC1 [1,4-Cyclohexanedione]
- RA (%) relative activity (protein DCR1; [2]): 0%

Molecule: C[C@]12CCC(=O)C[C@@H]1CC[C@@H]1[C@@H]2CC[C@]2(C)[C@@H](O)CC[C@@H]12 [5α-DHT]
- RA (%) relative activity (protein hDCR1; substrate concentration 50 μM): 0%

Molecule: CC12CCC(C(=O)C1=O)C2(C)C (centres unmarked) [Camphorquinone]
- RA (%) relative activity (protein DCR1; [7]): 6%
- RA (%) relative activity (protein hDCR1; substrate concentration 500 μM): 23%

Molecule: CC=O [Acetaldehyde]
- RA (%) relative activity (protein DCR1; [4]): 1.8%

Molecule: O=C(O)C(=O)Cc1ccccc1 [Phenylpyruvic acid]
- RA (%) relative activity (protein DCR1; [2]): 0.5%

Molecule: O=C(c1ccccc1)c1ccncc1 [4-Benzoylpyridine]
- RA (%) relative activity (protein DCR1; [2]): 7%
- RA (%) relative activity (protein hDCR1; [5]): 39%

Molecule: O=C[C@H](O)[C@@H](O)[C@H](O)[C@H](O)CO [D-Glucose]
- RA (%) relative activity (protein DCR1; substrate concentration 200,000 μM, against a reference of 100 for diacetyl): 0%

Molecule: CCC(C)=O [2-Butanone]
- RA (%) relative activity (protein DCR1): 0%

Molecule: O=CC=O [Glyoxal]
- RA (%) relative activity (protein DCR1; [4]): 0%

Molecule: C[C@]12C[C@H](O)[C@H]3[C@@H](CCC4=CC(=O)CC[C@@]43C)[C@@H]1CC[C@@H]2C(=O)CO [Corticosterone]
- RA (%) relative activity (protein hDCR1; substrate concentration 50 μM): 0%

Molecule: O=Cc1ccccc1[N+](=O)[O-] [2-Nitrobenzaldehyde]
- RA (%) relative activity (protein DCR1; substrate concentration 1,500 μM, against a reference of 100 for diacetyl): 3.9%
- RA (%) relative activity (protein hDCR1; [5]): 99%

Molecule: C[C@]12CCC(=O)C=C1CC[C@@H]1[C@@H]2[C@@H](O)C[C@@]2(C)[C@H]1CC[C@]2(O)C(=O)C=O [Cortisol-21-al]
- RA (%) relative activity (protein DCR1; [1]): 0.0%

Molecule: Indolecarboaldehyde
- RA (%) relative activity (protein DCR1; [2]): 0%

Molecule: O=C[C@H](O)[C@@H](O)[C@H](O)[C@H](O)C(=O)O [D-Glucuronate]
- RA (%) relative activity (protein DCR1; [2]): 0%

Molecule: CCCCCCCCC=O [1-Nonanal]
- RA (%) relative activity (protein DCR1; substrate concentration 50 μM, against a reference of 100 for diacetyl): 0.005%

Molecule: CCOC(=O)C(C)=O [Pyruvic acid ethyl ester]
- RA (%) relative activity (protein DCR1; [2]): 35.2%
- RA (%) relative activity (protein hDCR1; [5]): 33%

Molecule: O=CC(=O)c1ccccc1 [Phenylglyoxal]
- RA (%) relative activity (protein DCR1; [2]): 3.9%
- RA (%) relative activity (protein hDCR1; [5]): 35%

Molecule: C[C@]12CCC(=O)C[C@H]1CC[C@@H]1[C@@H]2CC[C@]2(C)C(=O)CC[C@@H]12 [5β-Androstane-3,17-dione]
- RA (%) relative activity (protein DCR1): 0.0%

Molecule: CCCCC[C@H](O)/C=C/[C@H]1[C@H](O)CC(=O)[C@@H]1C/C=C\CCCC(=O)O [PGE2]
- RA (%) relative activity (protein DCR1; [2]): 0.0%

Molecule: O[C@H]1CCc2ccccc21 [S-indan-1-ol]
- activity (as substrate) (protein DCR1): no activity

Molecule: COc1cccc2c1C(=O)c1c(O)c3c(c(O)c1C2=O)C[C@@](O)(C(C)=O)C[C@@H]3O[C@H]1C[C@H](N)[C@H](O)[C@H](C)O1 [Daunorubicin]
- RA (%) relative activity (protein DCR1; [7]): 1.1%
- RA (%) relative activity (protein hDCR1; substrate concentration 500 μM): 0%

Molecule: CC(=O)c1ccc([N+](=O)[O-])cc1 [4-Nitroacetophenone]
- activity (as substrate) (protein DCR1): no activity
- RA (%) relative activity (protein DCR1; [2]): 0%
- RA (%) relative activity (protein hDCR1; [5]): 0%

Molecule: CC(=O)C=O [Methylglyoxal]
- RA (%) relative activity (protein DCR1; [2]): 2.3%
- RA (%) relative activity (protein DCR1; [4]): 7.9%
- RA (%) relative activity (protein hDCR1; [6]): 20%

Molecule: C[C@]12CCC(=O)C[C@@H]1CC[C@@H]1[C@@H]2CC[C@]2(C)C(=O)CC[C@@H]12 [5α-Androstane-3,17-dione]
- RA (%) relative activity (protein DCR1): 0.0%
- RA (%) relative activity (protein hDCR1; substrate concentration 50 μM): 0%

Molecule: CC1=CC(=O)c2ccccc2C1=O [Menadione (Vitamin K3), Menadione]
- activity (as substrate) (protein DCR1): no activity
- RA (%) relative activity (protein DCR1; [3]): 0.1%
- RA (%) relative activity (protein hDCR1; substrate concentration 100 μM): 0%

Molecule: O=Cc1ccc([N+](=O)[O-])cc1 [4-Nitrobenzaldehyde]
- RA (%) relative activity (protein DCR1; [2]): 3.3%
- RA (%) relative activity (protein hDCR1; [5]): 69%

Molecule: CC(=O)c1ccc(S(=O)(=O)NC(=O)NC2CCCCC2)cc1 [Acetohexamide]
- RA (%) relative activity (protein DCR1; [2]): 0%

Molecule: CCC=O [1-Propanal]
- RA (%) relative activity (protein DCR1; [4]): 0.5%

Molecule: CC(=O)C(C)O (centres unmarked) [Acetoin]
- RA (%) relative activity (protein DCR1; [4]): 7.4%
- RA (%) relative activity (protein hDCR1; [6]): 13%

Molecule: O=Cc1ccncc1 [Pyridine-4-aldehyde]
- RA (%) relative activity (protein DCR1; [4]): 13.7%
- RA (%) relative activity (protein hDCR1; [5]): 27%

Molecule: CC(=O)CO [Acetol]
- RA (%) relative activity (protein DCR1; [2]): 0.8%

Molecule: CCOC(=O)CC(C)=O [Ethyl acetoacetate]
- RA (%) relative activity (protein DCR1; [2]): 0%

Molecule: COC(=O)CC(C)=O [Methyl acetoacetate]
- RA (%) relative activity (protein DCR1; [2]): 0.2%

Molecule: Phenyl-2-butanone
- RA (%) relative activity (protein DCR1; [2]): 0.2%

Molecule: O=C(O)C(=O)[C@@H](O)[C@H](O)[C@@H](O)CO [2-Ketogulonate]
- RA (%) relative activity (protein DCR1; [2]): 0%

Molecule: O=C1C=Cc2ccccc2C1=O [1,2-Naphtoquinone]
- RA (%) relative activity (protein DCR1; [1]): 47%

Molecule: CC(=O)C=Cc1ccccc1 [Benzalacetone]
- RA (%) relative activity (protein DCR1; [7]): 0%

Molecule: COC(=O)CCC(=O)C(=O)OC [Dimethyl-2-oxoglutarate]
- RA (%) relative activity (protein hDCR1; [8]): 63%
